Values joined by “and” are separate entries in the source; they are usually repeats but may differ in a detail not shown here. Equal entries are not always repeated. Inconclusive results and toxic doses are left out.
Tested on: L1210 leukemia ip in BDF1 mice, survival T/C
Experiment: NCI In Vivo Anticancer Drug Screen. Data for tumor model L1210 Leukemia (intraperitoneal) in B6D2F1 (BDF1) mice
Conditions: endpoint: mean survival time, higher = longer survival
Summary of the method: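 Transplantable tumor model; survival measured in treated vs vehicle control mice. Value = treated/control.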

[1] = dose: 400.0 mg/kg/injection, schedule: Q01DX001 (ip), vehicle: other
[2] = dose: 100.0 mg/kg/injection, schedule: Q04DX003 (ip), vehicle: saline with Tween-80
[3] = dose: 200.0 mg/kg/injection, schedule: Q04DX003 (ip), vehicle: saline with Tween-80
[4] = dose: 400.0 mg/kg/injection, schedule: Q04DX003 (ip), vehicle: saline with Tween-80
[5] = dose: 100.0 mg/kg/injection, schedule: Q04DX003 (ip), vehicle: Klucel (hydroxypropylcellulose) (HPC)
[6] = dose: 200.0 mg/kg/injection, schedule: Q04DX003 (ip), vehicle: Klucel (hydroxypropylcellulose) (HPC)
[7] = dose: 100.0 mg/kg/injection, schedule: Q01DX009 (ip), vehicle: saline
[8] = dose: 50.0 mg/kg/injection, schedule: Q01DX009 (ip), vehicle: saline
[9] = dose: 100.0 mg/kg/injection, schedule: Q04DX003 (ip), vehicle: saline
[10] = dose: 200.0 mg/kg/injection, schedule: Q04DX003 (ip), vehicle: saline

In the case of O=S1(=O)CCCCC1Cl (stereo not given), the T/C (dose: 38.0 mg/kg/injection, schedule: Q01DX009 (ip), vehicle: other) is reported as 96 % of control, the T/C (dose: 75.0 mg/kg/injection, schedule: Q01DX001 (ip), vehicle: other) is reported as 100 % of control and the T/C (dose: 75.0 mg/kg/injection, schedule: Q01DX009 (ip), vehicle: other) is reported as 89 % of control. The T/C (dose: 75.0 mg/kg/injection, schedule: Q04DX003 (ip), vehicle: other) was 98 % of control, the T/C (dose: 150.0 mg/kg/injection, schedule: Q01DX001 (ip), vehicle: other) was 100 % of control and the T/C (dose: 150.0 mg/kg/injection, schedule: Q01DX009 (ip), vehicle: other) was 91 % of control. For the same compound, the T/C (dose: 150.0 mg/kg/injection, schedule: Q04DX003 (ip), vehicle: other) was 98 % of control and the T/C (dose: 300.0 mg/kg/injection, schedule: Q01DX001 (ip), vehicle: other) was 103 % of control.
COc1cc(OCc2ccccc2)c(CC(=O)O)c([N+](=O)[O-])c1 was tested, and the T/C (dose: 100.0 mg/kg/injection, schedule: Q01DX001 (ip), vehicle: other) was 104 % of control, the T/C (dose: 100.0 mg/kg/injection, schedule: Q01DX009 (ip), vehicle: other) was 93 % of control and the T/C (dose: 100.0 mg/kg/injection, schedule: Q04DX003 (ip), vehicle: other) was 100 % of control. The T/C (dose: 200.0 mg/kg/injection, schedule: Q01DX001 (ip), vehicle: other) was 100 % of control, the T/C (dose: 200.0 mg/kg/injection, schedule: Q01DX009 (ip), vehicle: other) was 106 % of control and the T/C (dose: 200.0 mg/kg/injection, schedule: Q04DX003 (ip), vehicle: other) was 94 % of control. For the same compound, the T/C [1] was 94 % of control, the T/C (dose: 400.0 mg/kg/injection, schedule: Q01DX009 (ip), vehicle: other) was 103 % of control and the T/C (dose: 400.0 mg/kg/injection, schedule: Q04DX003 (ip), vehicle: other) was 94 % of control.
O=C(c1ccccc1)C1OC1c1ccc([N+](=O)[O-])cc1 (stereo not given) was tested, and the T/C (dose: 100.0 mg/kg/injection, schedule: Q01DX001 (ip), vehicle: saline with Tween-80) was 91 % of control, the T/C [2] was 100 % of control and the T/C (dose: 200.0 mg/kg/injection, schedule: Q01DX001 (ip), vehicle: saline with Tween-80) was 88 % of control. For the same compound, the T/C [3] was 103 % of control, the T/C (dose: 400.0 mg/kg/injection, schedule: Q01DX001 (ip), vehicle: saline with Tween-80) was 88 % of control and the T/C [4] was 100 % of control.
For NC(Cc1ccccc1)C(=O)NCCCl (stereo not given), the T/C (dose: 10.0 mg/kg/injection, schedule: Q01DX Z (ip), vehicle: saline) was 86 % of control, the T/C (dose: 30.0 mg/kg/injection, schedule: Q01DX Z (ip), vehicle: saline) was 93 % of control and the T/C (dose: 300.0 mg/kg/injection, schedule: Q01DX Z (ip), vehicle: saline) was 96 % of control.
O=c1[nH]c2cc(Cl)ccc2c2ccccc12 was tested, and the T/C (dose: 100.0 mg/kg/injection, schedule: Q01DX001 (ip), vehicle: carboxymethylcellulose (CMC)) was 99 % of control, the T/C (dose: 200.0 mg/kg/injection, schedule: Q01DX001 (ip), vehicle: carboxymethylcellulose (CMC)) was 97 % of control and the T/C (dose: 400.0 mg/kg/injection, schedule: Q01DX001 (ip), vehicle: carboxymethylcellulose (CMC)) was 95 % of control.
O=C(Nc1ccc2c(c1)C(Br)c1ccccc1-2)C(F)(F)F (stereo not given) was tested, and the T/C (dose: 100.0 mg/kg/injection, schedule: Q01DX009 (ip), vehicle: Klucel (hydroxypropylcellulose) (HPC)) was 98 % of control, the T/C [5] was 97 % of control and the T/C (dose: 200.0 mg/kg/injection, schedule: Q01DX009 (ip), vehicle: Klucel (hydroxypropylcellulose) (HPC)) was 93 % of control. For the same compound, the T/C [6] was 97 % of control and the T/C (dose: 400.0 mg/kg/injection, schedule: Q04DX003 (ip), vehicle: Klucel (hydroxypropylcellulose) (HPC)) was 97 % of control.
With Oc1ccc2c(ccc3ccc4ccccc4c32)c1 the T/C (dose: 100.0 mg/kg/injection, schedule: Q01DX001 (ip), vehicle: alcohol) was 103 % of control, the T/C (dose: 200.0 mg/kg/injection, schedule: Q01DX001 (ip), vehicle: alcohol) was 100 % of control and the T/C (dose: 400.0 mg/kg/injection, schedule: Q01DX001 (ip), vehicle: alcohol) was 95 % of control.
With CCCCC(CC)COC(OCC(CC)CCCC)C(OCC(CC)CCCC)OCC(CC)CCCC (stereo not given) the T/C [7] was 101 % of control, the T/C [2] was 98 % of control and the T/C (dose: 200.0 mg/kg/injection, schedule: Q01DX009 (ip), vehicle: saline) was 101 % of control. For the same compound, the T/C [3] was 94 % of control, the T/C (dose: 400.0 mg/kg/injection, schedule: Q01DX009 (ip), vehicle: saline) was 113 % of control and the T/C [4] was 91 % of control.
For CC(=O)[C@]1(O)Cc2c(O)c3c(c(O)c2[C@@H](OC2CC(N)C(O)C(C)O2)C1)C(=O)c1c(O)cccc1C3=O (stereo not given in full), the T/C (dose: 0.05 mg/kg/injection, schedule: Q03DX003 (ip), vehicle: saline) was 109 % of control, the T/C (dose: 0.1 mg/kg/injection, schedule: Q03DX003 (ip), vehicle: saline) was 123 % of control and the T/C (dose: 0.2 mg/kg/injection, schedule: Q01DX001 (ip), vehicle: saline) was 122 % of control. The T/C (dose: 0.4 mg/kg/injection, schedule: Q01DX009 (ip), vehicle: saline) was 154 % of control, the T/C (dose: 0.4 mg/kg/injection, schedule: Q03DX003 (ip), vehicle: saline) was 157 % of control and the T/C (dose: 0.8 mg/kg/injection, schedule: Q01DX001 (ip), vehicle: saline) was 192 % of control. The T/C (dose: 0.8 mg/kg/injection, schedule: Q01DX009 (ip), vehicle: saline) was 98 % of control, the T/C (dose: 0.8 mg/kg/injection, schedule: Q03DX003 (ip), vehicle: saline) was 159 % of control and the T/C (dose: 1.6 mg/kg/injection, schedule: Q01DX001 (ip), vehicle: saline) was 166 % of control.
In the case of COc1ccccc1OCCOCCN(C/C=C(\C)CCC=C(C)C)C/C=C(\C)CCC=C(C)C, the T/C [8] is reported as 100 % of control, the T/C [7] is reported as 96 % of control and the T/C [5] is reported as 102 % of control. For the same compound, the T/C [6] was 98 % of control.
COc1ccc(C(c2ccc(OC)cc2)C(c2ccc(OC)cc2)c2ccc(OC)cc2)cc1 was tested, and the T/C (dose: 100.0 mg/kg/injection, schedule: Q04DX002 (ip), vehicle: Klucel (hydroxypropylcellulose) (HPC)) was 98 % of control, the T/C (dose: 200.0 mg/kg/injection, schedule: Q04DX002 (ip), vehicle: Klucel (hydroxypropylcellulose) (HPC)) was 106 % of control and the T/C (dose: 400.0 mg/kg/injection, schedule: Q04DX002 (ip), vehicle: Klucel (hydroxypropylcellulose) (HPC)) was 103 % of control.
In the case of CSc1sc2ccccc2[n+]1C, the T/C (dose: 25.0 mg/kg/injection, schedule: Q01DX009 (ip), vehicle: saline) is reported as 102 % of control, the T/C [8] is reported as 96 % of control and 108 % of control and the T/C [9] is reported as 97 % of control. The T/C [10] was 113 % of control.
With CCSC(SCC)C(OC(C)=O)C(OC(C)=O)C(OC(C)=O)C(CNC(C)=O)OC(C)=O (stereo not given) the T/C (dose: 25.0 mg/kg/injection, schedule: Q04DX003 (ip), vehicle: saline with Tween-80) was 97 % of control, the T/C (dose: 50.0 mg/kg/injection, schedule: Q04DX003 (ip), vehicle: saline with Tween-80) was 94 % of control and the T/C [2] was 93 % of control and 89 % of control.
For O=C1CC(NC(=O)OCc2ccccc2)C(=O)O1 (stereo not given), the T/C (dose: 100.0 mg/kg/injection, schedule: Q01DX009 (ip), vehicle: saline with Tween-80) was 96 % of control, the T/C [9] was 103 % of control and the T/C (dose: 200.0 mg/kg/injection, schedule: Q01DX009 (ip), vehicle: saline with Tween-80) was 93 % of control. The T/C [10] was 97 % of control, the T/C (dose: 400.0 mg/kg/injection, schedule: Q01DX009 (ip), vehicle: saline with Tween-80) was 94 % of control and the T/C (dose: 400.0 mg/kg/injection, schedule: Q04DX003 (ip), vehicle: saline) was 95 % of control.
In the case of O=S1OCC2(CO1)COS(=O)OC2 (stereo not given), the T/C (dose: 1.56 mg/kg/injection, schedule: Q01DX009 (ip), vehicle: saline) is reported as 103 % of control, the T/C (dose: 1.56 mg/kg/injection, schedule: Q04DX003 (ip), vehicle: saline) is reported as 95 % of control and the T/C (dose: 3.12 mg/kg/injection, schedule: Q01DX009 (ip), vehicle: saline) is reported as 98 % of control. For the same compound, the T/C (dose: 3.12 mg/kg/injection, schedule: Q04DX003 (ip), vehicle: saline) was 101 % of control and the T/C (dose: 6.25 mg/kg/injection, schedule: Q04DX003 (ip), vehicle: saline) was 104 % of control.
In the case of Clc1ccccc1/C=C/c1ccccn1, the T/C (dose: 6.25 mg/kg/injection, schedule: Q04DX002 (ip), vehicle: DMSO) is reported as 102 % of control, the T/C (dose: 12.5 mg/kg/injection, schedule: Q04DX002 (ip), vehicle: DMSO) is reported as 98 % of control and the T/C (dose: 25.0 mg/kg/injection, schedule: Q04DX002 (ip), vehicle: DMSO) is reported as 109 % of control. For the same compound, the T/C (dose: 100.0 mg/kg/injection, schedule: Q04DX002 (ip), vehicle: DMSO) was 94 % of control.
With COc1ccc(OC)c2c1C1C=CC2C1 the T/C (dose: 177.0 mg/kg/injection, schedule: Q01DX001 (ip), vehicle: other) was 98 % of control, the T/C (dose: 266.0 mg/kg/injection, schedule: Q01DX001 (ip), vehicle: other) was 94 % of control and the T/C [1] was 89 % of control. The T/C (dose: 600.0 mg/kg/injection, schedule: Q01DX001 (ip), vehicle: other) was 96 % of control.
